In patent publication US20090131481A1, “Transcription Factor Modulating Compounds and Methods of Use Thereof” (Paratek Pharmaceuticals, Inc., published 2009):
Like-named read-outs stand apart in the source and are kept apart here.

Assays:
ExsA = target: T1, ExsA (Pseudomonas aeruginosa, UniProt P26993); assay: Chemiluminescence-based ExsA-DNA binding assay; design: species or system P. aeruginosa; details: Table 7, cell-free system; read-out: ExsA EC50
T1 construct: made in house
T1 sequence (P26993 1-278): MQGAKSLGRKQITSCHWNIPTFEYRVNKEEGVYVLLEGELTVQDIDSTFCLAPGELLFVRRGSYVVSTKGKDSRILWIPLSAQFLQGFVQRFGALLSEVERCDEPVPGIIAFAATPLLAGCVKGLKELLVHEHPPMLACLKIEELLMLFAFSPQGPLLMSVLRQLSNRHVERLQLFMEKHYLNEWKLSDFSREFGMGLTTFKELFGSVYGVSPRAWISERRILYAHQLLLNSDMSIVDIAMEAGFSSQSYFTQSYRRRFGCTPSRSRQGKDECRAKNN

LcrF (VirF) = LcrF (VirF) (Yersinia pestis, UniProt P28808); assay: biochemical; type: binding, Y. pseudotuberculosis
LcrF (VirF), sequence (P28808 whole entry, looked up): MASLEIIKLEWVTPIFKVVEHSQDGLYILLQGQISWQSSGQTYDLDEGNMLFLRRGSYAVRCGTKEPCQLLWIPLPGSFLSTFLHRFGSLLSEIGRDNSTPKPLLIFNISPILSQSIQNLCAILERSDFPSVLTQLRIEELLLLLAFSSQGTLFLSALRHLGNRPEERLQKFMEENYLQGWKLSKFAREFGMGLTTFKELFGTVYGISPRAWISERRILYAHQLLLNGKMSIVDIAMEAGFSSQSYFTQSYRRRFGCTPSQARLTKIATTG

Y. pseudotuberculosis = assay: microbe, parasite or virus in culture; details: Yersinia pseudotuberculosis, J774, read-out: % Cytotoxicity
P. aeruginosa = P. aeruginosa cytotoxicity whole cell assay (J774 cells, LDH release); details: relative to vehicle treated cells infected with wild type P. aeruginosa
[1] = EC50 for inhibition of LcrF(VirF)-DNA binding
[2] = read-out: EC50 for inhibition of LcrF(VirF)-DNA binding

| SMILES | EC50 (ExsA) [µM] | EC50 (LcrF (VirF); [1]) [µM] | activity at 50 µg/mL (Y. pseudotuberculosis) [%] | EC50 (LcrF (VirF); [2]) [µM] | Cytotoxicity at 50 μg/mL Pseudomonas (P. aeruginosa) |
| --- | --- | --- | --- | --- | --- |
| O=C(Nc1ccc(-c2nc3ccc([N+](=O)[O-])cc3n2O)cc1)c1ccc(-n2cccn2)cc1 [AB] | < 10 | – | – | – | – |
| CC(=O)Nc1ccc(C(=O)Nc2ccc(-c3nc4ccc([N+](=O)[O-])cc4n3O)cc2)cc1 [AC] | < 10 | 10 to 25 | < 75 | – | – |
| O=C(Nc1ccc(-c2nc3ccc([N+](=O)[O-])cc3n2O)cc1)c1ccc(N2CCOCC2)cc1 [AD] | 10 to 25 | – | – | – | – |
| O=C(Nc1ccc(-c2nc3ccc([N+](=O)[O-])cc3n2O)cc1)c1ccc(O)cc1 [AE] | 10 to 25 | – | – | – | – |
| NS(=O)(=O)c1ccc(C(=O)Nc2ccc(-c3nc4ccc([N+](=O)[O-])cc4n3O)cc2)cc1 [AF] | 10 to 25 | – | – | – | – |
| CS(=O)(=O)c1ccc(C(=O)Nc2ccc(-c3nc4ccc([N+](=O)[O-])cc4n3O)cc2)cc1 [AG] | > 25 | – | – | – | – |
| O=C(O)c1ccc(C(=O)Nc2ccc(-c3nc4ccc([N+](=O)[O-])cc4n3O)cc2)cc1 [AI] | > 25 | – | – | – | – |
| O=C(/C=C/c1ccc(O)cc1)Nc1ccc(-c2nc3ccc([N+](=O)[O-])cc3n2O)cc1 [AN] | 10 to 25 | – | – | – | – |
| CC(C)c1ccc(/C=C/C(=O)Nc2ccc(-c3nc4ccc([N+](=O)[O-])cc4n3O)cc2)cc1 [CS] | > 25 | > 25 | < 75 | – | – |
| C/C(=C\c1ccccc1)C(=O)Nc1ccc(-c2nc3ccc([N+](=O)[O-])cc3n2O)cc1 [CT] | > 25 | > 25 | < 75 | – | – |
| O=C(Nc1ccc2nc(-c3ccc([N+](=O)[O-])cc3)n(O)c2c1)c1ccc(F)cc1 [CW] | – | – | < 75 | > 25 | – |
| NC(=NO)c1ccc2nc(-c3ccc(NC(=O)c4ccc(F)cc4)cc3)n(O)c2c1 [CX] | > 25 | > 25 | < 75 | – | – |
| CC(=NO)c1ccc2nc(-c3ccc(NC(=O)c4ccc(N(C)C)cc4)cc3)n(O)c2c1 [DF] | > 25 | > 25 | < 75 | – | – |
| O=C(O)COn1c(-c2ccc(NC(=O)c3ccc(F)cc3)cc2)nc2ccc([N+](=O)[O-])cc21 [DG, {2-[4-(4-Fluoro-benzoylamino)-phenyl]-6-nitro-benzoimidazol-1-yloxy}-acetic acid] | – | > 25 | < 75 | – | – |
| CCc1cc(-c2nc3ccc([N+](=O)[O-])cc3n2O)ccc1NC(=O)c1ccc(F)cc1 [DK] | > 25 | 10 to 25 | < 75 | – | – |
| NC(=O)c1ccc2nc(-c3ccc(NC(=O)c4ccc(F)cc4)cc3)n(O)c2c1 [DO, 2-[4-(4-Fluoro-benzoylamino)-phenyl]-3-hdroxy-3H-benzoimidazole-5-carboxylic acid amide] | > 25 | – | < 75 | > 25 | – |
| O=C(Nc1ccc(-c2nc3ccc([N+](=O)[O-])cc3n2O)nc1)c1ccc(F)cc1 [DQ] | > 25 | > 25 | < 75 | – | – |
| O=C(Nc1ccc(-c2nc3ccc([N+](=O)[O-])cc3n2OCP(=O)(O)O)cc1)c1ccc(F)cc1 [DV] | > 25 | – | < 75 | > 25 | – |
| O=C(Nc1ccc(-c2nc3ccc([N+](=O)[O-])cc3n2O)c(OCP(=O)(O)O)c1)c1ccc(F)cc1 [EC, [5-(4-Fluoro-benzoylamino)-2-(1-hydroxy-6-nitro-1H-benzoimidazol-2-yl)-phenoxymethyl]-phosphonic acid] | > 25 | – | < 75 | > 25 | – |
| CCOP(=O)(COn1c(-c2ccc(NC(=O)c3ccc(F)cc3)cc2)nc2ccc([N+](=O)[O-])cc21)OCC [EG] | > 25 | – | < 75 | > 25 | – |
| O=C(Nc1ccc(-c2nc3ccncc3n2O)cc1)c1ccc(F)cc1 [EJ] | > 25 | – | < 75 | > 25 | – |
| O=C(/C=C/c1ccc(F)cc1)Nc1ccc(-c2nc3ccncc3n2O)cc1 [EK] | > 25 | – | < 75 | > 25 | – |
| Cc1cc(-c2nc3ccc([N+](=O)[O-])cc3n2O)ccc1NC(=O)/C=C/c1ccc(F)cc1 [EN] | > 25 | 10 to 25 | < 75 | – | – |
| O=C(Nc1ccc(-c2nc3ccc([N+](=O)[O-])cc3n2O)cc1)c1ccc2c(c1)CCCC2=O [EP] | > 25 | > 25 | < 75 | – | – |
| CC(=O)c1ccc(C(=O)Nc2ccc(-c3nc4ccc([N+](=O)[O-])cc4n3O)cc2C)cc1 [ER] | – | – | < 75 | > 25 | – |
| CN(C)CCN(C)c1cc2nc(-c3ccc(NC(=O)/C=C/c4ccc(F)cc4)cc3)n(O)c2cc1[N+](=O)[O-] [FQ] | – | – | – | – | ** (reduced P. aeruginosa cytotoxicity below 75% of untreated, wild type levels at 50 mg/mL) |

| SMILES | EC50 (ExsA) [µM] | EC50 (LcrF (VirF); [1]) [µM] | activity at 50 µg/mL (Y. pseudotuberculosis) [%] | EC50 (LcrF (VirF); [2]) [µM] | Cytotoxicity at 50 μg/mL Pseudomonas (P. aeruginosa) |
| --- | --- | --- | --- | --- | --- |
| CN1CCN(CCOc2cc3nc(-c4ccc(NC(=O)/C=C/c5ccc(F)cc5)cc4)n(O)c3cc2[N+](=O)[O-])CC1 [FR] | – | – | – | – | * (reduced P. aeruginosa cytotoxicity to 99-75% of untreated, wild type levels at 50 mg/mL) |
| CN(C)CCOc1cc2nc(-c3ccc(NC(=O)/C=C/c4ccc(F)cc4)cc3)n(O)c2cc1[N+](=O)[O-] [FS] | > 25 | – | – | – | * (reduced P. aeruginosa cytotoxicity to 99-75% of untreated, wild type levels at 50 mg/mL) |
| CC(=O)c1ccc(/C=C/C(=O)Nc2ccc(-c3nc4cc(OCCN5CCN(C)CC5)c([N+](=O)[O-])cc4n3O)cc2)cc1 [FU] | – | – | – | – | ** (reduced P. aeruginosa cytotoxicity below 75% of untreated, wild type levels at 50 mg/mL) |
| CC(=O)c1ccc(C(=O)Nc2ccc(-c3nc4ccc(-n5ccnc5)cc4n3O)cc2)cc1 [FZ, 4-Acetyl-N-[4-(1-hdroxy-6-imidazol-1-yl-1H-benzoimidazol-2-yl)-phenyl]-benzamide] | > 25 | – | – | – | * (reduced P. aeruginosa cytotoxicity to 99-75% of untreated, wild type levels at 50 mg/mL) |
| CC(=O)c1ccc(/C=C/C(=O)Nc2ccc(-c3nc4ccc(Br)cc4n3O)cc2)cc1 [GD] | < 10 | – | – | – | * (reduced P. aeruginosa cytotoxicity to 99-75% of untreated, wild type levels at 50 mg/mL) |
| CC(=O)c1ccc(/C=C/C(=O)Nc2ccc(-c3nc4ccc(C(F)(F)F)cc4n3O)cc2)cc1 [GE] | 10 to 25 | – | – | – | * (reduced P. aeruginosa cytotoxicity to 99-75% of untreated, wild type levels at 50 mg/mL) |
| CC(=O)c1ccc(/C=C/C(=O)Nc2ccc(-c3nc4ccc(S(N)(=O)=O)cc4n3O)cc2)cc1 [GF] | 10 to 25 | – | – | – | * (reduced P. aeruginosa cytotoxicity to 99-75% of untreated, wild type levels at 50 mg/mL) |
| CC(=O)c1ccc(/C=C/C(=O)Nc2ccc(-c3nc4ccccc4n3O)cc2)cc1 [GH] | 10 to 25 | – | – | – | * (reduced P. aeruginosa cytotoxicity to 99-75% of untreated, wild type levels at 50 mg/mL) |
| CC(=O)c1ccc(/C=C/C(=O)Nc2ccc(-c3nc4ccc(C(C)=O)cc4n3O)cc2)cc1 [GI] | > 25 | – | – | – | * (reduced P. aeruginosa cytotoxicity to 99-75% of untreated, wild type levels at 50 mg/mL) |
| CC(=O)c1ccc(/C=C/C(=O)Nc2ccc(-c3nc4ccc(S(C)(=O)=O)cc4n3O)cc2)cc1 [GK] | > 25 | – | – | – | * (reduced P. aeruginosa cytotoxicity to 99-75% of untreated, wild type levels at 50 mg/mL) |
| O=C(Cc1ccc(F)cc1)Nc1ccc(-c2nc3ccc([N+](=O)[O-])cc3n2O)cc1 [G] | > 25 | > 25 | – | – | – |
| O=C(/C=C/c1ccccc1)Nc1ccc(-c2nc3ccc([N+](=O)O)cc3n2O)cc1 [J] | < 10 | < 10 | < 75 | – | – |
| O=C(Nc1ccc(-c2nc3ccc([N+](=O)[O-])cc3n2O)cc1)c1ccc(-n2cncn2)cc1 [K] | < 10 | 10 to 25 | < 75 | – | – |
| O=C(CCc1ccc(F)cc1)Nc1ccc(-c2nc3ccc([N+](=O)[O-])cc3n2O)cc1 [L] | > 25 | > 25 | – | – | – |
| O=C(Nc1ccc(-c2nc3ccc([N+](=O)[O-])cc3n2O)cc1)c1cccc(F)c1 [N] | – | > 25 | – | – | – |
| Cc1cccc(C(=O)Nc2ccc(-c3nc4ccc([N+](=O)[O-])cc4n3O)cc2)c1 [O] | – | > 25 | – | – | – |
| Cc1ccccc1C(=O)Nc1ccc(-c2nc3ccc([N+](=O)[O-])cc3n2O)cc1 [P] | – | > 25 | – | – | – |
| O=C(Nc1ccc(-c2nc3ccc([N+](=O)[O-])cc3n2O)cc1)c1ccccc1F [Q] | – | > 25 | – | – | – |
| O=[N+]([O-])c1ccc2nc(-c3ccc(C#Cc4ccc(F)cc4)cc3)n(O)c2c1 [R] | > 25 | > 25 | – | – | – |
| COc1ccc(/C=C/C(=O)Nc2ccc(-c3nc4ccc([N+](=O)[O-])cc4n3O)cc2)cc1 [T] | < 10 | < 10 | < 75 | – | – |
| COc1ccccc1/C=C/C(=O)Nc1ccc(-c2nc3ccc([N+](=O)[O-])cc3n2O)cc1 [U] | < 10 | 10 to 25 | – | – | – |
| O=C(/C=C/c1ccc(F)c(F)c1)Nc1ccc(-c2nc3ccc([N+](=O)[O-])cc3n2O)cc1 [W] | 10 to 25 | 10 to 25 | < 75 | – | – |
| N#Cc1ccc(/C=C/C(=O)Nc2ccc(-c3nc4ccc([N+](=O)[O-])cc4n3O)cc2)cc1 [X] | < 10 | 10 to 25 | < 75 | – | – |
| O=C(/C=C/c1ccc(C(F)(F)F)cc1)Nc1ccc(-c2nc3ccc([N+](=O)[O-])cc3n2O)cc1 [Y] | 10 to 25 | < 10 | – | – | – |
| O=C(NCc1ccc(-c2nc3ccc([N+](=O)[O-])cc3n2O)cc1)c1ccc(F)cc1 [Z] | > 25 | > 25 | – | – | – |
